# Key:
# Assay in all cases: TAG hydrolase assay, Expi293 lysates expressing ATGL orthologue
# Type in all cases: biochemical
# [1] = tested on: marmoset ATGL
# Excerpt: (§1) We previously developed Atglistatin (Ai), a selective inhibitor of mouse ATGL,[31],[32] which is ineffective against human ATGL.[17] Ai acts as a competitive inhibitor targeting the minimal active domain of ATGL ranging from aa 1–254.[33] This domain is highly conserved in different mammalian species (∼90% identity, Table 1) and comprises the patatin-like domain, eponymous for all members of the patatin-like phospholipase domain-containing (PNPLA) protein family.[34] We first investigated the species selectivity of Ai by performing TAG hydrolase assays[35] with lysates from Expi293 cells expressing ATGL orthologues of different species. The activity of ATGL is strongly stimulated by the co-activator protein comparative gene identification-58 (CGI-58, also known as α/β hydrolase domain containing 5, ABHD5)[36] and can be suppressed by the inhibitory protein G0/G1 switch 2 (G0S2).[37] We therefore determined ATGL activity in the presence and absence of mouse CGI-58, mouse G0S2, and Ai. As shown in Figure 1a–i, all ATGL orthologues were expressed, enzymatically active, stimulated by mouse CGI-58, and inactivated by mouse G0S2. Ai inhibited mouse (Figure 1a), rat (Figure 1b), goat (Figure 1c), dog (Figure 1e), and marmoset ATGL (Figure 1f), but not pig (Figure 1d), rhesus monkey (Figure 1g), or human ATGL (Figure 1h).
# (§2) Experimental details, materials, and methods
# (§3) Expression of recombinant ATGL constructs and preparation of cell lysates. Expi293 cells were cultivated in Expi293 Expression Medium (GIBCO, Thermo Fisher Scientific, Waltham, USA) at standard conditions (37°C, 5% CO2, 95% humidified atmosphere, 125 rpm). DNA constructs containing ATGL from different species and chimeric ATGL variants in pcDNA3.1(+)myc-His C Vector were obtained from BioCat GmbH (Heidelberg, Germany). Cells were transfected with ExpiFectamine293 Transfection Kit (GIBCO) in Opti-Mem reduced serum medium (GIBCO) according to the manufacturer’s instructions. After 48 h, cells were harvested by centrifugation and washed three times with PBS. Cells were disrupted in buffer A (0.25 M sucrose, 1 mM EDTA, 1 mM dithiothreitol, 20µg/ml leupeptin, 2 µg/ml antipain, 1 µg/ml pepstatin, pH 7.0) by sonication (Virsonic 475, Virtis, Gardiner, USA). Nuclei and debris were removed by centrifugation at 1,000 g and 4°C for 10 min. Protein concentrations were determined using Bio-Rad protein assay (Bio-Rad 785, Bio-Rad Laboratories, Munich, Germany) using BSA as standard.
# (§4) Expression and purification of mouse CGI-58. CGI-58 was expressed and purified as described 1. In brief, the coding sequence of mouse Cgi-58 was cloned into pHis-Sumo and co-transformed with the plasmid pTf16 expressing the chaperone Tig into E. coli BL21(DE3). Cells were cultured overnight at 37°C and 180 rpm in the presence of 40 µg/ml kanamycin and 34 µg/ml chloramphenicol. Thereafter, cells were transferred into fresh LB medium, grown until OD600 of 0.6, and expression was induced by the addition of 0.5 mM IPTG. After overnight incubation at 30°C, cells were harvested at 4,500 x g and 4°C for 20 min, washed in 1x PBS, and resuspended in lysis buffer (20 mM Tris/HCl pH 7.8, 300 mM NaCl, 30 mM imidazole, 0.1% IGEPAL CA-630, 3.5 mM β-mercaptoethanol, 20 µg/ml leupeptin, 2 µg/ml antipain and 1 µg/ml pepstatin). Cells were incubated with 1 mg/ml lysozyme at 4°C for 20 min, disrupted by sonication, and lysates were centrifuged at 30,000 x g and 4°C for 40 min. His-CGI-58 was purified from the supernatant using an ÄKTA pure system (Cytiva, Uppsala, Sweden) equipped with a 5 ml HisTrap […]
# (§5) Expression and purification of mouse G0S2. Chemically competent E. coli ArcticExpress (DE3) cells were transformed with the pST50-SMT3-TEV-mG0S2-His expression plasmid, plated on LB agar plates containing 100 ampicillin, and incubated […] overnight at 37°C. The next day, 10 ml LB medium supplemented with 100 μg/ml ampicillin, 20 μg/ml gentamycin and 2% glucose were inoculated with a single colony and incubated overnight at 37°C. […]
# [2] = tested on: dog ATGL
# Excerpt: as §1, §2, §3, §4, §5
# [3] = tested on: goat ATGL
# Excerpt: as §1, §2, §3, §4, §5
# [4] = target: T1, mouse ATGL (Mus musculus, UniProt Q8BJ56)
# T1 construct: host or cells: Expi293 cells, crude lysate
# T1 sequence (Q8BJ56 whole entry): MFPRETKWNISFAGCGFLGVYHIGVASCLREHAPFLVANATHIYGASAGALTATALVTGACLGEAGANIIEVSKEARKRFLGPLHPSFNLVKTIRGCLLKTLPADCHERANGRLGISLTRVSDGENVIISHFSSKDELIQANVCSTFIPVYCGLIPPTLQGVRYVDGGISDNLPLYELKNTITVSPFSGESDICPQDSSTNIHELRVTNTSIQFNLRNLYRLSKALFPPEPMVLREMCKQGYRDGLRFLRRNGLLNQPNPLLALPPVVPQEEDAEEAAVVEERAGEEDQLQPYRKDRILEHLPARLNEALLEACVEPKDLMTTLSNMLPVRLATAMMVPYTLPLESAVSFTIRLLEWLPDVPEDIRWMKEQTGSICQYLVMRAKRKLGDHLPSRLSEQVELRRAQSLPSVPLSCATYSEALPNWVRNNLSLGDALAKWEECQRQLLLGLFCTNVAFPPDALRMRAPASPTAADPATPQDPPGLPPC
# Excerpt: as §1, §2, §3, §4, §5
# [5] = target: T2, rat ATGL (Rattus norvegicus, UniProt P0C548)
# T2 construct: host or cells: Expi293 cells, crude lysate
# T2 sequence (P0C548 whole entry): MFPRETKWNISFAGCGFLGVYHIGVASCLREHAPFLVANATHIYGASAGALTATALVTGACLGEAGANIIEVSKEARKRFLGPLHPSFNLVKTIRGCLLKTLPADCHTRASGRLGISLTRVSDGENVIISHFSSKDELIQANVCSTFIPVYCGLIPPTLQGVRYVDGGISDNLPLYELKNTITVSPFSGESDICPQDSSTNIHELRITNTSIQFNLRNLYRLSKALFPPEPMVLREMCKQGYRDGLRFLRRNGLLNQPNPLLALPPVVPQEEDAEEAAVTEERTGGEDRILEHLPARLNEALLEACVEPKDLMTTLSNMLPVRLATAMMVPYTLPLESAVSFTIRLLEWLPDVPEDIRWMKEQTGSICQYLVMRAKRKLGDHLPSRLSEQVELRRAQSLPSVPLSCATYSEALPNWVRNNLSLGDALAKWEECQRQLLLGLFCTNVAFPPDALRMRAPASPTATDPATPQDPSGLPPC
# Excerpt: as §1, §2, §3, §4, §5
SMILES,reduction in TAG hydrolase activity ([1]; NG-497 50 μM),reduction in TAG hydrolase activity ([2]; NG-497 50 μM),reduction in TAG hydrolase activity ([3]; NG-497 50 μM),reduction in TAG hydrolase activity ([4]; NG-497 50 μM),reduction in TAG hydrolase activity ([5]; NG-497 50 μM),inhibition of TAG hydrolase activity ([1]; Atglistatin (Ai) 40 μM),inhibition of TAG hydrolase activity ([2]; Atglistatin (Ai) 40 μM),inhibition of TAG hydrolase activity ([3]; Atglistatin (Ai) 40 μM),inhibition of TAG hydrolase activity ([4]; Atglistatin (Ai) 40 μM),inhibition of TAG hydrolase activity ([5]; Atglistatin (Ai) 40 μM)
CCOc1ccc(-c2cc(OC)cc(C(=O)OC(C)C)n2)cc1 [NG-497],less than 20%,less than 20%,less than 20%,less than 20%,less than 20%,–,–,–,–,–
"CN(C)C(=O)Nc1cccc(-c2ccc(N(C)C)cc2)c1 [Atglistatin, reference compound]",–,–,–,–,–,inhibited,inhibited,inhibited,inhibited,inhibited

# Reference: PMC9011347, “Small-Molecule Inhibitors Targeting Lipolysis in Human Adipocytes” (Journal of the American Chemical Society, 2022)
